Measurements reported in ChEMBL document CHEMBL1137051, “More potent linear peptide inhibitors of mammalian ribonucleotide reductase” (Bioorg Med Chem Lett, 2004).
Where a SMILES comes first, the peptide text is derived from it. [ ]: non-standard residue; d: D form. The star is where a group is joined. Fmoc = O=C(OCC1c2ccccc2-c2ccccc21)*; NMeF = CN[C@@H](Cc1ccccc1)C(=O)O; NMePhg = CN[C@H](C(=O)O)c1ccccc1; Cha = N[C@@H](CC1CCCCC1)C(=O)O

Each compound was assayed against T1, Ribonucleoside-diphosphate reductase RR1 (Homo sapiens, UniProt P23921+Q7LG56+P31350) (assay: (§1) Inhibition of mammalian ribonucleotide reductase in a standard dTTP-dependent GDP reductase assay).
T1 sequence (P23921 whole entry): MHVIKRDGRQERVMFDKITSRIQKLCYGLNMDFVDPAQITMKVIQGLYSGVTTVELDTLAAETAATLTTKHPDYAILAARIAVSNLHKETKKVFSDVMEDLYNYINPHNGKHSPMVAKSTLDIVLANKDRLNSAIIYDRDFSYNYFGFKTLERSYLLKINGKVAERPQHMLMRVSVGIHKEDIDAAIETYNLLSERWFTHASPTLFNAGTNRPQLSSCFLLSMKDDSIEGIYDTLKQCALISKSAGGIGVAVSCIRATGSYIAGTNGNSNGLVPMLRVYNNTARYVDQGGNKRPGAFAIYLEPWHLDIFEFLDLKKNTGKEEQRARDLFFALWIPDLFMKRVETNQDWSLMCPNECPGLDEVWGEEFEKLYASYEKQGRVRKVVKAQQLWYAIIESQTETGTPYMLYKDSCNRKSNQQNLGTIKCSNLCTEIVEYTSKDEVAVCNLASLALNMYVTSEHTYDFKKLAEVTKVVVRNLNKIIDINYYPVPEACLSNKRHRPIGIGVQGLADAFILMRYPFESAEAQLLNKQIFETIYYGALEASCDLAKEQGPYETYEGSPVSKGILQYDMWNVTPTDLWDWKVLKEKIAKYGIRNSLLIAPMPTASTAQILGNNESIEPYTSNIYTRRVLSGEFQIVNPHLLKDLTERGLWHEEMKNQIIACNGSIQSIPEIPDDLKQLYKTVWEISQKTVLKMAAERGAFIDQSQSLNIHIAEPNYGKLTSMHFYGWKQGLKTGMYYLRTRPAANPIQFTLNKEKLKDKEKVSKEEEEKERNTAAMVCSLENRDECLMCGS
T1 sequence (Q7LG56 whole entry): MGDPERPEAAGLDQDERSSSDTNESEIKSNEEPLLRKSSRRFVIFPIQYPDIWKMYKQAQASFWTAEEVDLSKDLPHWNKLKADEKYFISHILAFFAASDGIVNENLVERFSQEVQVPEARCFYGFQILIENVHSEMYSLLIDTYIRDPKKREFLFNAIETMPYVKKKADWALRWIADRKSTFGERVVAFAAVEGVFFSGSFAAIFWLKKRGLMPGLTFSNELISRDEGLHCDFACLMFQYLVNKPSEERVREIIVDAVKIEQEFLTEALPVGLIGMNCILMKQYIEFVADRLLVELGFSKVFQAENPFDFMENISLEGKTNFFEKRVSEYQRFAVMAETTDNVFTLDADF
T1 sequence (P31350 whole entry): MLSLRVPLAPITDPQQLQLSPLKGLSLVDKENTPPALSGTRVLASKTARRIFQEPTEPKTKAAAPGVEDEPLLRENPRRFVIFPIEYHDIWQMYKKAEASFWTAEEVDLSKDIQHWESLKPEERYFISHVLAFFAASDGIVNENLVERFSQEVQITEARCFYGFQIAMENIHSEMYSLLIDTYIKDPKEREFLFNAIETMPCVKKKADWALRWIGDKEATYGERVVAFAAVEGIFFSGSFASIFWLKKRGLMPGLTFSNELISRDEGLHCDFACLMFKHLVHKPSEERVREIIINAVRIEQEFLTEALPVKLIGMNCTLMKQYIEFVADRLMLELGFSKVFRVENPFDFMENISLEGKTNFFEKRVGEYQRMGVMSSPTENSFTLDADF
Format: protein-complex assay

Compound	IC50 [µM]
CC(C)C[C@H](NC(=O)[C@H](Cc1ccccc1)N(C)C(=O)OCC1c2ccccc2-c2ccccc21)C(=O)N[C@@H](CC(=O)O)C(=O)N[C@@H](CC1CCCCC1)C(=O)N[C@@H](CC(=O)O)C(=O)N[C@@H](Cc1ccccc1)C(=O)O (Fmoc-[NMeF]LD[Cha]DF-OH)	2.4
CC(C)C[C@H](NC(=O)[C@H](Cc1ccccc1)N(C)C(=O)OCC1c2ccccc2-c2ccccc21)C(=O)N[C@@H](CCC(=O)O)C(=O)N[C@@H](CC1CCCCC1)C(=O)N[C@@H](CC(=O)O)C(=O)N[C@@H](Cc1ccccc1)C(=O)O (Fmoc-[NMeF]LE[Cha]DF-OH)	2.4

The compounds below were run against T2, Ribonucleoside-diphosphate reductase RR1 (Homo sapiens, UniProt P23921+P31350+Q7LG56) (assay: as §1).
T2 sequence (P23921 whole entry): T1 sequence (P23921 whole entry)
T2 sequence (Q7LG56 whole entry): T1 sequence (Q7LG56 whole entry)
T2 sequence (P31350 whole entry): T1 sequence (P31350 whole entry)
Format: protein-complex assay

Compound	IC50 [µM]
O=C(O)C[C@H](NC(=O)[C@H](Cc1ccccc1)NC(=O)[C@H](Cc1c[nH]c2ccccc12)NC(=O)OCC1c2ccccc2-c2ccccc21)C(=O)N[C@@H](Cc1ccccc1)C(=O)O (Fmoc-WFDF-OH)	22
CC(C)[C@H](NC(=O)[C@H](Cc1c[nH]c2ccccc12)NC(=O)OCC1c2ccccc2-c2ccccc21)C(=O)N[C@@H](Cc1ccccc1)C(=O)N[C@@H](Cc1ccccc1)C(=O)O (Fmoc-WVFF-OH)	20
CC(C)C[C@H](NC(=O)[C@H](c1ccccc1)N(C)C(=O)OCC1c2ccccc2-c2ccccc21)C(=O)N[C@@H](CC(=O)O)C(=O)N[C@@H](CC1CCCCC1)C(=O)N[C@@H](CC(=O)O)C(=O)N[C@@H](Cc1ccccc1)C(=O)O (Fmoc-[NMePhg]LD[Cha]DF-OH)	1.9
Ac-FTLDADF-OH	13.3
